T/C data for 18 compounds are collected here from PubChem BioAssay AID248 (DTP/NCI, 2004).

This experiment concerns L1210 leukemia ip in BDF1 mice, survival T/C. In words: NCI In Vivo Anticancer Drug Screen. Data for tumor model L1210 Leukemia (intraperitoneal) in B6D2F1 (BDF1) mice. Particulars: endpoint: mean survival time, higher = longer survival. The method in brief:
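Ratio derived from survival: compound-dosed mice over vehicle-dosed mice, all bearing a transplantable tumor.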

Where [1] appears, read: dose: 25.0 mg/kg/injection, schedule: Q01DX009 (ip), vehicle: saline.
The mark [2] stands for this setting: dose: 50.0 mg/kg/injection, schedule: Q01DX009 (ip), vehicle: saline.
Setting [3] is: dose: 100.0 mg/kg/injection, schedule: Q01DX009 (ip), vehicle: saline.
Where [4] appears, read: dose: 100.0 mg/kg/injection, schedule: Q04DX003 (ip), vehicle: saline.
Where [5] appears, read: dose: 200.0 mg/kg/injection, schedule: Q01DX009 (ip), vehicle: saline.
Setting [6] is: dose: 200.0 mg/kg/injection, schedule: Q04DX003 (ip), vehicle: saline.
[7] abbreviates: dose: 400.0 mg/kg/injection, schedule: Q01DX009 (ip), vehicle: saline.
Setting [8] is: dose: 400.0 mg/kg/injection, schedule: Q04DX003 (ip), vehicle: saline.
Where [9] appears, read: dose: 12.5 mg/kg/injection, schedule: Q04DX002 (ip), vehicle: Klucel (hydroxypropylcellulose) (HPC).
Where [10] appears, read: dose: 100.0 mg/kg/injection, schedule: Q01DX001 (ip), vehicle: Klucel (hydroxypropylcellulose) (HPC).
The mark [11] stands for this setting: dose: 100.0 mg/kg/injection, schedule: Q04DX003 (ip), vehicle: Klucel (hydroxypropylcellulose) (HPC).
[12] abbreviates: dose: 200.0 mg/kg/injection, schedule: Q01DX001 (ip), vehicle: Klucel (hydroxypropylcellulose) (HPC).
[13] abbreviates: dose: 200.0 mg/kg/injection, schedule: Q04DX003 (ip), vehicle: Klucel (hydroxypropylcellulose) (HPC).
The mark [14] stands for this setting: dose: 400.0 mg/kg/injection, schedule: Q01DX001 (ip), vehicle: Klucel (hydroxypropylcellulose) (HPC).
Where [15] appears, read: dose: 400.0 mg/kg/injection, schedule: Q04DX003 (ip), vehicle: Klucel (hydroxypropylcellulose) (HPC).
Where [16] appears, read: dose: 25.0 mg/kg/injection, schedule: Q01DX009 (ip), vehicle: saline with Tween-80.

Where “and” joins values, the source holds several entries; their conditions need not be identical. Equal values may be shown once. Inconclusive results and toxic doses are left out.

Turning to `Cc1ccccc1OCC(O)CO` (stereo not given), the T/C is, setting by setting: under setting [1], 95 % of control; (dose: 25.0 mg/kg/injection, schedule: Q04DX003 (ip), vehicle: saline) 101 % of control; under setting [2], 93 % of control; (dose: 50.0 mg/kg/injection, schedule: Q04DX003 (ip), vehicle: saline) 95 % of control; under setting [3], 102 % of control; under setting [4], 95 % of control. Besides, the T/C reads like this: under setting [5], 102 % of control; under setting [6], 111 % of control; under setting [7], 98 % of control; under setting [8], 123 % of control.

As to `Oc1ccccc1/C=N/Sc1ccccc1.Oc1ccccc1/C=N/Sc1ccccc1.[Cl][Pd][Cl]`, the T/C was 90 % of control under setting [9]; 101 % of control (dose: 25.0 mg/kg/injection, schedule: Q04DX002 (ip), vehicle: Klucel (hydroxypropylcellulose) (HPC)); 111 % of control (dose: 50.0 mg/kg/injection, schedule: Q04DX002 (ip), vehicle: Klucel (hydroxypropylcellulose) (HPC)).

In the case of `Cn1cnc2cc(Cl)ccc21`, the T/C was 101 % of control under setting [2], 104 % of control under setting [3] and 97 % of control under setting [5].

`CC12CCC3C(CC=C4CC(SC(=N)N)CCC43C)C1CCC2=O` (stereo not given): the T/C runs as follows: under setting [10], 95 % of control; under setting [11], 97 % of control; under setting [12], 95 % of control; under setting [13], 95 % of control; under setting [14], 101 % of control; under setting [15], 97 % of control.

Consider `COc1ccc(OC)c(NC(=O)NNC(=O)c2ccc(Cl)cc2)c1`, for which the T/C was 95 % of control under setting [16]; 94 % of control (dose: 50.0 mg/kg/injection, schedule: Q01DX009 (ip), vehicle: saline with Tween-80); 92 % of control (dose: 100.0 mg/kg/injection, schedule: Q01DX009 (ip), vehicle: saline with Tween-80).

Turning to `O=C1CCCC(=O)c2ccccc21`, the T/C runs as follows: (dose: 100.0 mg/kg/injection, schedule: Q01DX001 (ip), vehicle: carboxymethylcellulose (CMC)) 98 % of control; (dose: 200.0 mg/kg/injection, schedule: Q01DX001 (ip), vehicle: carboxymethylcellulose (CMC)) 93 % of control; (dose: 400.0 mg/kg/injection, schedule: Q01DX001 (ip), vehicle: carboxymethylcellulose (CMC)) 102 % of control.

In the case of `COC(=O)[CH]([Hg][CH](C(=O)OC)C(=O)OC)C(=O)OC`, the T/C (dose: 3.12 mg/kg/injection, schedule: Q04DX002 (ip), vehicle: Klucel (hydroxypropylcellulose) (HPC)) is 88 % of control; the T/C (dose: 6.25 mg/kg/injection, schedule: Q04DX002 (ip), vehicle: Klucel (hydroxypropylcellulose) (HPC)) is 98 % of control; the T/C under setting [9] was 91 % of control.

Consider `O=c1[nH]cnc2c1ncn2C1OCC(O)C(O)C1O` (stereo not given), for which the T/C is, setting by setting: (dose: 50.0 mg/kg/injection, schedule: Q01DX001 (ip), vehicle: saline) 105 % of control; (dose: 100.0 mg/kg/injection, schedule: Q01DX001 (ip), vehicle: saline) 101 % of control and 105 % of control; (dose: 200.0 mg/kg/injection, schedule: Q01DX001 (ip), vehicle: saline) 119 % of control and 109 % of control; (dose: 400.0 mg/kg/injection, schedule: Q01DX001 (ip), vehicle: saline) 103 % of control.

As for `O=[N+]([O-])c1sc2ccccc2c1O`, the T/C (dose: 12.5 mg/kg/injection, schedule: Q01DX009 (ip), vehicle: saline with Tween-80) is 99 % of control and the T/C under setting [16] is 99 % of control.

As to `NCCCCS(=O)(=O)Nc1ccc(Nc2c3ccccc3nc3cc([N+](=O)[O-])ccc23)cc1`, the T/C was 117 % of control (dose: 2.1 mg/kg/injection, schedule: Q01DX009 (ip), vehicle: saline); 121 % of control (dose: 3.1 mg/kg/injection, schedule: Q01DX009 (ip), vehicle: saline); 123 % of control (dose: 16.0 mg/kg/injection, schedule: Q01DX009 (ip), vehicle: saline); 158 % of control under setting [1]; 111 % of control (dose: 25.0 mg/kg/injection, schedule: Q01DX009 (sc), vehicle: saline); 228 % of control under setting [2]. The T/C is 118 % of control (dose: 50.0 mg/kg/injection, schedule: Q01DX009 (sc), vehicle: saline); 266 % of control under setting [3]; 175 % of control (dose: 100.0 mg/kg/injection, schedule: Q01DX009 (sc), vehicle: saline); 163 % of control (dose: 200.0 mg/kg/injection, schedule: Q01DX009 (sc), vehicle: saline).

In the case of `CCOP(=O)(OCC)OC(=C(F)F)P(=O)(OCC)OCC`, the T/C runs as follows: under setting [4], 98 % of control; under setting [6], 101 % of control; under setting [8], 96 % of control.

Regarding `[Br][Hg][Br].c1ccc(N=P(c2ccccc2)(c2ccccc2)c2ccccc2)cc1`, the T/C runs as follows: (dose: 9.38 mg/kg/injection, schedule: Q01DX001 (ip), vehicle: other) 95 % of control; (dose: 18.75 mg/kg/injection, schedule: Q01DX001 (ip), vehicle: other) 95 % of control; (dose: 37.5 mg/kg/injection, schedule: Q01DX001 (ip), vehicle: other) 100 % of control.

In the case of `O=C(COc1ccccc1)NCCNC(=S)Nc1ccccc1`, the T/C by setting is: (dose: 100.0 mg/kg/injection, schedule: Q01DX001 (ip), vehicle: saline with Tween-80) 102 % of control; (dose: 200.0 mg/kg/injection, schedule: Q01DX001 (ip), vehicle: saline with Tween-80) 94 % of control; (dose: 400.0 mg/kg/injection, schedule: Q01DX001 (ip), vehicle: saline with Tween-80) 112 % of control.

Take `O=CC(O)C(O)C(Cl)C(O)CCl` (stereo not given): the T/C (dose: 100.0 mg/kg/injection, schedule: Q04DX002 (ip), vehicle: saline with Tween-80) was 90 % of control; the T/C (dose: 200.0 mg/kg/injection, schedule: Q04DX002 (ip), vehicle: saline with Tween-80) is 97 % of control; the T/C (dose: 400.0 mg/kg/injection, schedule: Q04DX002 (ip), vehicle: saline with Tween-80) is 93 % of control.

In the case of `O=c1[nH]cnc2nn(C3OC(CO)C(O)C3O)cc12` (stereo not given), the T/C by setting is: (dose: 100.0 mg/kg/injection, schedule: Q01DX005 (ip), vehicle: saline) 105 % of control; (dose: 200.0 mg/kg/injection, schedule: Q01DX005 (ip), vehicle: saline) 104 % of control.

For the compound `O=C(Cc1ccc([N+](=O)[O-])cc1)c1ccccc1`, the T/C under setting [10] was 95 % of control; the T/C (dose: 100.0 mg/kg/injection, schedule: Q01DX009 (ip), vehicle: Klucel (hydroxypropylcellulose) (HPC)) is 102 % of control; the T/C under setting [3] is 108 % of control; the T/C under setting [11] was 97 % of control; the T/C under setting [12] was 88 % of control; the T/C (dose: 200.0 mg/kg/injection, schedule: Q01DX009 (ip), vehicle: Klucel (hydroxypropylcellulose) (HPC)) was 103 % of control. Further, the T/C is 102 % of control under setting [5]; 97 % of control under setting [13]; 90 % of control under setting [14]; 94 % of control (dose: 400.0 mg/kg/injection, schedule: Q01DX009 (ip), vehicle: Klucel (hydroxypropylcellulose) (HPC)); 97 % of control under setting [7]; 101 % of control under setting [15].

Turning to `CCOC(=O)c1cnc(N(C)CC(=O)O)[nH]c1=O`, the T/C is, setting by setting: (dose: 100.0 mg/kg/injection, schedule: Q04DX002 (ip), vehicle: Klucel (hydroxypropylcellulose) (HPC)) 94 % of control; (dose: 200.0 mg/kg/injection, schedule: Q04DX002 (ip), vehicle: Klucel (hydroxypropylcellulose) (HPC)) 94 % of control; (dose: 400.0 mg/kg/injection, schedule: Q04DX002 (ip), vehicle: Klucel (hydroxypropylcellulose) (HPC)) 107 % of control.

In the case of `CC1(C)CCC2(C(=O)O)CCC3=C(C(CCl)CC4C3(C)CCC3C4(C)CC(O)C(O)C3(C)C(=O)O)C2C1` (stereo not given), the T/C reads like this: (dose: 25.0 mg/kg/injection, schedule: Q01DX Z (ip), vehicle: carboxymethylcellulose (CMC)) 96 % of control; (dose: 50.0 mg/kg/injection, schedule: Q01DX Z (ip), vehicle: carboxymethylcellulose (CMC)) 91 % of control; (dose: 75.0 mg/kg/injection, schedule: Q01DX Z (ip), vehicle: carboxymethylcellulose (CMC)) 97 % of control; (dose: 125.0 mg/kg/injection, schedule: Q01DX Z (ip), vehicle: carboxymethylcellulose (CMC)) 94 % of control.
